From US10196442B2, “Methods of inhibiting growth of a colon cancer tumor in a subject by administering monoclonal antibodies to G protein-coupled receptor 49 (GPR49)” (Bionomics Inc., priority 2011, dated 2019)

Legend:
[1] = tested on: CT1 primary xenograft cells; test: CT1 primary xenograft, murine mAbs in combination with Irinotecan; assay type: in vivo, SCID beige female mice; details: Irinotecan 10 mg/kg IP once per day for the first 5 days
Protocol: Single agent in vivo efficacy of murine antibodies 14F7.1, 18G7.1, 5B10.1, 14A8.1, 1B3.5 was evaluated in a primary colon tumor xenograft model system using CT1 primary xenograft cells. CT1 is a primary colorectal (CRC) in vivo xenograft tumor established from a fresh CRC patient tumor sample. The mutational status was determined by Ion Torrent deep sequencing to identify oncogene mutations. Approximately 5-15% of CT1 tumors express GPR49. SCID beige female mice were inoculated with CT1 tumor cells and monitored for tumor growth. Mice were randomized at day 0 into groups of 10 when mean tumor volume reached 175 mm^3. Chemotherapeutic Irinotecan was administered IP at 10 mg/kg once per day for the first 5 days. The antibodies were administered intraperitoneally (i.p.) at 15 mg/kg administered twice weekly for 4 weeks. Tumors were measured at the indicated intervals post-inoculation for total tumor volume.

[2] = tested on: colon tumor cells; test: Secondary transplant tumor formation after GPR49 mAb+irinotecan (Example 30); assay type: in vivo, mice; details: 140 day follow-up
Excerpt: Isolated tumor cells from control or GPR49 mAb+irinotecan treated tumors from the in vivo study outlined in Example 3 were harvested, pooled, dissociated and re-implanted in a limiting dilution secondary transplant assay to measure cancer stem cell frequency. For each treatment group, 8 mice were implanted with 10, 30, 100 cells. […]

[3] = target: T1, GPR49 (Homo sapiens, UniProt O75473); test: Internalization of GPR49 in Lovo colon tumor cells (confocal); assay type: cell-based; details: 10 ug/ml, 37° C., 60 min
T1 construct: endogenous in cells; host or cells: Lovo colon tumor cells
T1 sequence (O75473 22-907): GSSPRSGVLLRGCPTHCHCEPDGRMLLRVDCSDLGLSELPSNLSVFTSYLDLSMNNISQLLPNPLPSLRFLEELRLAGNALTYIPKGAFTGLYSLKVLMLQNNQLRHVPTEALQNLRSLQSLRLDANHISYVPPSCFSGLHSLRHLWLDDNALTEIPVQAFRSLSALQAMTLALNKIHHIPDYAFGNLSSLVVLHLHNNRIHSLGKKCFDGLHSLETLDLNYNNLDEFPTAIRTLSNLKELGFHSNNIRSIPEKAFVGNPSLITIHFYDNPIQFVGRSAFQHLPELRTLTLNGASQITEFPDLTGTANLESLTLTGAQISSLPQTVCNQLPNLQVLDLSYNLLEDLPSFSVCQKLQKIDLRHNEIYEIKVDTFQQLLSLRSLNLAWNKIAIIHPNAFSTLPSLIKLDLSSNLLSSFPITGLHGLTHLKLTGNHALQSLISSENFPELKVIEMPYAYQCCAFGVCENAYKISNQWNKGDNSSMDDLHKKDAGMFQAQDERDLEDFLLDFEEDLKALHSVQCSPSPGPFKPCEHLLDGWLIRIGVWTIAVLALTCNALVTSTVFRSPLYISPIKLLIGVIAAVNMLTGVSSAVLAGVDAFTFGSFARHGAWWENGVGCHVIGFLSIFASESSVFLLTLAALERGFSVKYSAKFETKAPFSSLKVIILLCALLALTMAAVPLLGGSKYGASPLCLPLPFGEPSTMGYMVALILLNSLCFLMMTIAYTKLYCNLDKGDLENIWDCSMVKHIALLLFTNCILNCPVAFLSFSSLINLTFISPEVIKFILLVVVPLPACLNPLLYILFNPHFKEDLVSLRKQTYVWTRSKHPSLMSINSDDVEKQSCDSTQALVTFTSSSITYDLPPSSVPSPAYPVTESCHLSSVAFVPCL
Protocol: Methods: Lovo colon tumor cells were seeded at 50,000 cells per well into 8 well chamber slides (Becton Dickinson Collagen Type 1 coated culture slides, BD BioCoat™#354630) 48 hours prior to staining procedures. Cells were routinely maintained below 20 passages. On day of staining procedures, culture media was discarded from each well and replaced with 500 ul cold incubation buffer (MEM Eagle ATCC #30-2003+1% BSA). Cells were washed 2× with this buffer for 3 min each wash. 250 ul of each mAb (76C12, 78F05 and murine 10A9.2) to be tested was then added to the appropriate well at a concentration of 10 ug/ml, diluted in incubation media, and incubated on ice for 1 hour. A human anti-human-IGF-1R antibody was used as a positive control to compare degree of internalization. Antibody 5A7 (anti-Id mAb), IDEC152 (anti-CD23 IgG1 mAb) and no antibody were used as negative controls. After the 45 minutes incubation on ice, the time zero (1=0′) slide washed 3× with 500 ul of cold wash buffer (PBS+1% BSA+2% Goat serum) for 3 min each wash (slides always kept on ice). The t=0 slide was then fixed with 500 ul […] (diluted with PBS from 16% stock; EMS #15710) for 15 minutes at room temperature. The t=0 slide was then washed again 3× with cold wash buffer for 3 minutes each wash, then left on ice. […]

| Compound | tumor inhibition by Irinotecan alone [1] [%] | average size of tumors ([2]; cells from irinotecan treated tumors) [mm^3] | mice with tumors ([2]; cells from pre-treated tumors) | internalization of GPR49 [3] |
| --- | --- | --- | --- | --- |
| CCc1c2c(nc3ccc(OC(=O)N4CCC(N5CCCCC5)CC4)cc13)-c1cc3c(c(=O)n1C2)COC(=O)[C@]3(O)CC [Irinotecan] | 45 | 1729 | 5/8 | – |
| IDEC152: primatized anti-CD23 IgG1 mAb, negative control | – | – | – | did not bind or internalize |
